Laboratory results from US11981658B2, “Substituted aminopyridine compounds as EGFR inhibitors” (YUHAN CORPORATION, priority 2021, dated 2024).
Where two headings read alike, the source gives them in different places.

Key:
[1] = target: EGFR Del19/T790M/C797S (Homo sapiens, UniProt P00533, C797S/DEL746-750/T790M); assay: Biochemical EGFR kinase inhibition assay (Lance Ultra TR-FRET), triple mutant del19/T790M/C797S
Procedure, shortened: (§1)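 In this biochemical assay, phosphorylation after a one-hour room-temperature reaction was detected with europium-labelled anti-phosphopeptide antibody at 2 nM final concentration.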

[2] = target: EGFR L858R/T790M/C797S (Homo sapiens, UniProt P00533, C797S/L858R/T790M); assay: Biochemical EGFR kinase inhibition assay (Lance Ultra TR-FRET), triple mutant L858R/T790M/C797S
Procedure, shortened: as §1

[3] = target: EGFR Del19/C797S (Homo sapiens, UniProt P00533, C797S/DEL746-750); assay: Biochemical EGFR kinase inhibition assay (Lance Ultra TR-FRET), double mutant del19/C797S
Procedure, shortened: as §1

[4] = target: EGFR L858R/C797S (Homo sapiens, UniProt P00533, C797S/L858R); assay: Biochemical EGFR kinase inhibition assay (Lance Ultra TR-FRET), double mutant L858R/C797S
Procedure, shortened: as §1

[5] = target: EGFR wildtype (WT) (Homo sapiens, UniProt P00533); assay: Biochemical EGFR kinase inhibition assay (Lance Ultra TR-FRET), wildtype
Procedure, shortened: as §1

[6] = ATP at Km, read-out: IC50 Del19/T790M/C797S (nM), Km ATP
[7] = IC50 Del19/T790M/C797S (nM), 100 μM ATP
[8] = ATP at Km, read-out: IC50 L858R/T790M/C797S (nM), Km ATP
[9] = IC50 L858R/T790M/C797S (nM), 100 μM ATP
[10] = ATP at Km, read-out: IC50 Del19/C797S (nM), Km ATP
[11] = IC50 Del19/C797S (nM), 100 μM ATP
[12] = ATP at Km, read-out: IC50 L858R/C797S (nM), Km ATP
[13] = IC50 L858R/C797S (nM), 100 μM ATP
[14] = ATP at Km, read-out: IC50 WT (nM), Km ATP
[15] = Km ATP, read-out: IC50 Del19/T790M/C797S (nM), Km ATP
[16] = Km ATP, read-out: IC50 L858R/T790M/C797S (nM), Km ATP
[17] = Km ATP, read-out: IC50 Del19/C797S (nM), Km ATP
[18] = Km ATP, read-out: IC50 L858R/C797S (nM), Km ATP
[19] = Km ATP, read-out: IC50 WT (nM), Km ATP

EGFR Del19/C797S, sequence (P00533 with tags, fused parts or gaps DEL746-750/C797S): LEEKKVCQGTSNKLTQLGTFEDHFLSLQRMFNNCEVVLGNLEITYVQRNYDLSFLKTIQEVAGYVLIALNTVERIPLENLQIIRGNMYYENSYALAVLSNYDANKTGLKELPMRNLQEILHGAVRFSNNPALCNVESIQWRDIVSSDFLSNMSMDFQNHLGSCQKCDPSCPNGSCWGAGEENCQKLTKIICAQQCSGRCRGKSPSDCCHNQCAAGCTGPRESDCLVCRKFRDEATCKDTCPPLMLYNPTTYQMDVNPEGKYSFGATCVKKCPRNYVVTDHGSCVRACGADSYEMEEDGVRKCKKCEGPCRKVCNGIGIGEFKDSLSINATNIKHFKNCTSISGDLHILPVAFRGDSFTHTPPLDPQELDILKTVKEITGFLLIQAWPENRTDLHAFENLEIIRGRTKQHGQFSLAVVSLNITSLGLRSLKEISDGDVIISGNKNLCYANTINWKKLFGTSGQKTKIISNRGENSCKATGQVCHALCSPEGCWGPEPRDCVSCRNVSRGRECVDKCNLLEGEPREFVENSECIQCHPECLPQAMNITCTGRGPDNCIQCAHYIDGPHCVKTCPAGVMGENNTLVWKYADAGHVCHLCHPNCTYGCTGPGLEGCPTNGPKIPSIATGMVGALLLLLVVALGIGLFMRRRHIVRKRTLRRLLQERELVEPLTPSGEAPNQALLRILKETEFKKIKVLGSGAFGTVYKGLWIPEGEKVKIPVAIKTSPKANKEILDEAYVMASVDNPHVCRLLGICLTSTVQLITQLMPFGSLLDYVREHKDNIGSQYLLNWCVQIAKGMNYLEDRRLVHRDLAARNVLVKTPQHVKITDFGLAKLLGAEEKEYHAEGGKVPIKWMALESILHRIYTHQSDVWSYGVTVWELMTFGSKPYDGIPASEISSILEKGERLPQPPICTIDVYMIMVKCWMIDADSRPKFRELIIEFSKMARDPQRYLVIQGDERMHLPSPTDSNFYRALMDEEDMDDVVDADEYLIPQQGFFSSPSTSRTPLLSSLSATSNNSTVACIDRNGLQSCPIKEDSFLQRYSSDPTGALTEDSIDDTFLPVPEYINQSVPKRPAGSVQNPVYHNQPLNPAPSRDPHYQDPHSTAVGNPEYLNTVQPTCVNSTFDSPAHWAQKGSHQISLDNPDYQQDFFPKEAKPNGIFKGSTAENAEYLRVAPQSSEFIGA
EGFR L858R/T790M/C797S, sequence (P00533 25-1210 T790M/C797S/L858R): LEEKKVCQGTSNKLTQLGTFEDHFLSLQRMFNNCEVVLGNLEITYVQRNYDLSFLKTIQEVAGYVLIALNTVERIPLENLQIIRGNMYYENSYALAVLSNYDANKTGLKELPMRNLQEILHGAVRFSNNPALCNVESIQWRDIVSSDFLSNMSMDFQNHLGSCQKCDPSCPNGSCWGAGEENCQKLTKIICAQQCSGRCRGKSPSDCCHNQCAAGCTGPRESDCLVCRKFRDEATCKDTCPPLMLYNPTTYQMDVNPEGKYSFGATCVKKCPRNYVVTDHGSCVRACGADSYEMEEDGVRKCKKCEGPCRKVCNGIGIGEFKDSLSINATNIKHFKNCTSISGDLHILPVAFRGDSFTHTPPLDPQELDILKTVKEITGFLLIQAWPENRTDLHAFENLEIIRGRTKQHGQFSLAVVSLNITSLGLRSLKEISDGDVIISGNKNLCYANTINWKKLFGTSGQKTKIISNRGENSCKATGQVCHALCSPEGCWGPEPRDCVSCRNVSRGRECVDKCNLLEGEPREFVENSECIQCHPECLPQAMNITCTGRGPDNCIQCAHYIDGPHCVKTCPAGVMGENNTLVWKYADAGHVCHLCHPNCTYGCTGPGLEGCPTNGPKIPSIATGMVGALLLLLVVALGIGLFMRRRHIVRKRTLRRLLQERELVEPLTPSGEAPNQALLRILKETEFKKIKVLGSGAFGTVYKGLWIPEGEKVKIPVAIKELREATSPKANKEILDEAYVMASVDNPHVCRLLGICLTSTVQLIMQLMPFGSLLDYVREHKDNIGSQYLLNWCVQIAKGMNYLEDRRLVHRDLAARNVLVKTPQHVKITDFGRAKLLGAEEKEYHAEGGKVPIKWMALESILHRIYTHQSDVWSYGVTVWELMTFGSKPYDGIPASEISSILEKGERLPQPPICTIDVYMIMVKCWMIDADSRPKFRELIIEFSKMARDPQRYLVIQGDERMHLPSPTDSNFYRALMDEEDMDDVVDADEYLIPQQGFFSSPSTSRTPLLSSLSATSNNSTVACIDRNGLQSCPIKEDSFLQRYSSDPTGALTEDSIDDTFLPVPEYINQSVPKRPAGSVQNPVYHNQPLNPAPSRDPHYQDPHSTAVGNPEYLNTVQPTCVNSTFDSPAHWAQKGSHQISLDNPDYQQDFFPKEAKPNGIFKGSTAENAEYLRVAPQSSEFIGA
EGFR wildtype (WT), sequence (P00533 25-1210): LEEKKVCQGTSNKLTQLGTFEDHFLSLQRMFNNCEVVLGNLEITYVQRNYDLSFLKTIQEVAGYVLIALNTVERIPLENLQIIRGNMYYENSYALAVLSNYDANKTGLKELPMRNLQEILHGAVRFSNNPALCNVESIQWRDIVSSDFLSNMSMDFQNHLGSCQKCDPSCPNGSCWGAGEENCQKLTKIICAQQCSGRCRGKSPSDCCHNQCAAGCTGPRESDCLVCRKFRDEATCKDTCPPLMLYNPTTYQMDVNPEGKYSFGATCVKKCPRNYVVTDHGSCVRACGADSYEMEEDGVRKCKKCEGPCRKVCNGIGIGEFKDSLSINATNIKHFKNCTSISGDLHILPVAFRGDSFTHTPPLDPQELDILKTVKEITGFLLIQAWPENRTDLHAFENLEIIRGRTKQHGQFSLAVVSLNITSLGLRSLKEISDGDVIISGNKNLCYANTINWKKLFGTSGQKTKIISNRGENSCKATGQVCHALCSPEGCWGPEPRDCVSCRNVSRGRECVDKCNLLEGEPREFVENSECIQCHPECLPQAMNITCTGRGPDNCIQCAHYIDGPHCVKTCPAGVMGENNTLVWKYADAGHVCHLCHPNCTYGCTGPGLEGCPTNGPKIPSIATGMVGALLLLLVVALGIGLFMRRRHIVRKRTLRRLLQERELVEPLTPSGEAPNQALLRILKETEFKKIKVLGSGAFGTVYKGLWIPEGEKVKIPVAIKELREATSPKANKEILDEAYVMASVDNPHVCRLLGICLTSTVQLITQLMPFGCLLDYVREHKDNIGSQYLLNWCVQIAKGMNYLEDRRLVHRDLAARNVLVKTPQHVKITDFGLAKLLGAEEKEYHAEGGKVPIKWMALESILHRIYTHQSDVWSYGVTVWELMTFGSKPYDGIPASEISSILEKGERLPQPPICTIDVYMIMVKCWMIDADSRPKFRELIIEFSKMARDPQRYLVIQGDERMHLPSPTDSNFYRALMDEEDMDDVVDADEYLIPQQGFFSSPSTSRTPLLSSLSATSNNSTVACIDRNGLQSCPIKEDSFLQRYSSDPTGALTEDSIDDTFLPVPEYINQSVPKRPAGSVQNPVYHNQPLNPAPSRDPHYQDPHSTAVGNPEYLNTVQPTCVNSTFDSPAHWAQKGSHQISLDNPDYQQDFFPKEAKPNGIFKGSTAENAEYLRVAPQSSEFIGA
EGFR L858R/C797S, sequence (P00533 25-1210 C797S/L858R): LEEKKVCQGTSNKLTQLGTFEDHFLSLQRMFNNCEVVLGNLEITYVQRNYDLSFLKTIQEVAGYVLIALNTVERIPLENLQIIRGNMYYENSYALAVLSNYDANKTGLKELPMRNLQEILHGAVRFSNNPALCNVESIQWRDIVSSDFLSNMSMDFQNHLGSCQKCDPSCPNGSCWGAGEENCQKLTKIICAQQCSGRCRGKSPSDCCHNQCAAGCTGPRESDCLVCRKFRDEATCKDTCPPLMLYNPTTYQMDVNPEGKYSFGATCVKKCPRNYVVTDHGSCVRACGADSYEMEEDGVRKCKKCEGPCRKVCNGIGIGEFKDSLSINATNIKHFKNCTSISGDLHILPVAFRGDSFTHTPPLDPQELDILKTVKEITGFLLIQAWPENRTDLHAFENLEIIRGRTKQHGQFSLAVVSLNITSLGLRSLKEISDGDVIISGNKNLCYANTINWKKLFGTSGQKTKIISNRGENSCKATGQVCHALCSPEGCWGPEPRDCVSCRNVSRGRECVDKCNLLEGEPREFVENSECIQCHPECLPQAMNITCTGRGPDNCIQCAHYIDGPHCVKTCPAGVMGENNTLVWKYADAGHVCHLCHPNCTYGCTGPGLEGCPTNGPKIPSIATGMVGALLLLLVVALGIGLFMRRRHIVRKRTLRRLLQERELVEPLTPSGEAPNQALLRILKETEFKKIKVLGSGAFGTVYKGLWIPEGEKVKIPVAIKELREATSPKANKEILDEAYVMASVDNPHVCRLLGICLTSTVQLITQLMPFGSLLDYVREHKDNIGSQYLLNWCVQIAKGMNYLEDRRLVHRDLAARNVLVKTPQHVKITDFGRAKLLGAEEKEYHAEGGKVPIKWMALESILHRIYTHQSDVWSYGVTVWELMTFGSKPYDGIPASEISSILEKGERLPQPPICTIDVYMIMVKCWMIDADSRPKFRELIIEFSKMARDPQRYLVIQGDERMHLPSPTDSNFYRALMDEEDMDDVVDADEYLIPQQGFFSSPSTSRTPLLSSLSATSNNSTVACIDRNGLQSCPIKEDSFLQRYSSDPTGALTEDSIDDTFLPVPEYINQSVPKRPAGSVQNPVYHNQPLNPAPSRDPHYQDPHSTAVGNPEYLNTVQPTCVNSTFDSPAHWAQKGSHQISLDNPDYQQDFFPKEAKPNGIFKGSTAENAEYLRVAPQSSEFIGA

SMILES	IC50 [1, 6] [nM]	IC50 [1, 7] [nM]	IC50 [2, 8] [nM]	IC50 [2, 9] [nM]	IC50 [3, 10] [nM]	IC50 [3, 11] [nM]	IC50 [4, 12] [nM]	IC50 [4, 13] [nM]	IC50 [5, 14] [nM]	IC50 ([5]; IC50 WT (nM), 100 μM ATP) [nM]	IC50 [1, 15] [nM]	IC50 [2, 16] [nM]	IC50 [3, 17] [nM]	IC50 [4, 18] [nM]	IC50 [5, 19] [nM]
O=S(=O)(C1CC1)n1cc(-c2nccc(Nc3cc(N[C@H]4CC[C@@H](O)CC4)c(C#CC4(O)CCOCC4)cn3)n2)cn1 [Example 196, 4-((6-((2-(1-(Cyclopropylsulfonyl)-1H-pyrazol-4-yl)pyrimidin-4-yl)amino)-4-(((1 s, 4s)-4-hydroxycyclohexyl)amino)pyridin-3-yl)ethynyl)tetrahydro-2H-pyran-4-ol]	0.7	0.6	0.3	1.1	6	9.8	6.8	50.6	68	> 10000	–	–	–	–	–
O=S(=O)(C1CC1)n1cc(-c2nccc(Nc3cc(NC[C@H]4CC[C@H](CO)CC4)c(C#CC4CC5CCC4O5)cn3)n2)cn1 (stereo partly shown) [Example 425, ((1r,4r)-4-(((5-((7-Oxabicyclo[2.2.1]heptan-2-yl)ethynyl)-2-((2-(1-(cyclopropylsulfonyl)-1H-pyrazol-4-yl)pyrimidin-4-yl)amino)pyridin-4-yl)amino)methyl)cyclohexyl)methanol]	–	2.5	–	5.4	–	120	–	1820	–	> 10000	–	–	–	–	–
O=S(=O)(C1CC1)n1cc(-c2nccc(Nc3cc(N[C@@H]4CCC[C@H](O)C4)c(C#Cc4ccc(CN5CCOCC5)cc4)cn3)n2)cn1 [Example 160, (1S,3R)-3-((2-((2-(1-(Cyclopropylsulfonyl)-1H-pyrazol-4-yl)pyrimidin-4-yl)amino)-5-((4-(morpholinomethyl)phenyl)ethynyl)pyridin-4-yl)amino)cyclohexan-1-ol]	5.7	7.3	2.5	6.2	4.1	10.1	3.8	65.6	64.8	> 10000	–	–	–	–	–
CN1CCC2(CC1)CCN(c1cc(Nc3ccnc(-c4cnn(S(=O)(=O)C5CC5)c4)n3)ncc1C#Cc1cnn(CC(F)F)c1)CC2 [Example 322, 2-(1-(Cyclopropylsulfonyl)-1H-pyrazol-4-yl)-N-(5-((1-(2,2-difluoroethyl)-1H-pyrazol-4-yl)ethynyl)-4-(9-methyl-3,9-diazaspiro[5.5]undecan-3-yl)pyridin-2-yl)pyrimidin-4-amine]	–	0.5	–	0.4	–	6	–	18	–	4540	–	–	–	–	–
CN1CCC(C#Cc2cnc(Nc3ccnc(-c4cnn(S(=O)(=O)C5CC5)c4)n3)cc2N2CCC3(CCO3)CC2)C1 (stereo not shown) [Example 373, 2-(1-(Cyclopropylsulfonyl)-1H-pyrazol-4-yl)-N-(5-((1-methylpyrrolidin-3-yl)ethynyl)-4-(1-oxa-7-azaspiro[3.5]nonan-7-yl)pyridin-2-yl)pyrimidin-4-amine]	–	0.2	–	0.4	–	1.8	–	41.6	–	9540	0.2	0.1	1.6	2.5	10.8
O=S(=O)(C1CC1)N1CCC(C#Cc2cnc(Nc3ccnc(-c4cnn(S(=O)(=O)C5CC5)c4)n3)cc2NC2CCC(O)CC2)C1 (stereo not shown) [Example 394, (1s,4s)-4-((2-((2-(1-(Cyclopropylsulfonyl)-1H-pyrazol-4-yl)pyrimidin-4-yl)amino)-5-((1-(cyclopropylsulfonyl)pyrrolidin-3-yl)ethynyl)pyridin-4-yl)amino)cyclohexan-1-ol]	–	0.6	–	1.5	–	12.3	–	52.5	–	> 10000	0.5	0.2	7.5	4.3	15.7
CN(C)C[C@H]1CC[C@@H](Nc2cc(Nc3ccnc(-c4cnn(S(=O)(=O)C5CC5)c4)n3)ncc2C#Cc2cnn(C(F)F)c2)CC1 [Example 310, N^2-(2-(1-(Cyclopropylsulfonyl)-1H-pyrazol-4-yl)pyrimidin-4-yl)-5-((1-(difluoromethyl)-1H-pyrazol-4-yl)ethynyl)-N^4-((1s,4s)-4-((dimethylamino)methyl)cyclohexyl)pyridine-2,4-diamine]	–	0.8	–	1.3	2.9	4.2	1.9	56.3	44	8840	–	–	–	–	–
O=S(=O)(C1CC1)N1CCC(C#Cc2cnc(Nc3ccnc(-c4cnn(S(=O)(=O)C5CC5)c4)n3)cc2N[C@H]2CC[C@@H](O)CC2)CC1 [Example 391, (1s,4s)-4-((2-((2-(1-(Cyclopropylsulfonyl)-1H-pyrazol-4-yl)pyrimidin-4-yl)amino)-5-((1-(cyclopropylsulfonyl)piperidin-4-yl)ethynyl)pyridin-4-yl)amino)cyclohexan-1-ol]	–	1.3	–	2.1	–	5.1	–	63.4	–	> 10000	0.6	0.4	3	19.2	25.6

The next lines start with the values.

IC50 [1, 6] [nM]	IC50 [1, 7] [nM]	IC50 [2, 8] [nM]	IC50 [2, 9] [nM]	IC50 [3, 10] [nM]	IC50 [3, 11] [nM]	IC50 [4, 12] [nM]	IC50 [4, 13] [nM]	IC50 [5, 14] [nM]	IC50 ([5]; IC50 WT (nM), 100 μM ATP) [nM]	IC50 [1, 15] [nM]	IC50 [2, 16] [nM]	IC50 [3, 17] [nM]	IC50 [4, 18] [nM]	IC50 [5, 19] [nM]	SMILES
0.2	0.1	0.1	0.1	0.5	0.3	0.4	2.7	2.8	1100	–	–	–	–	–	CN1CCC(C#Cc2cnc(Nc3ccnc(-c4cnn(S(=O)(=O)C5CC5)c4)n3)cc2N2CCC(C)(CO)CC2)C1 (stereo not shown) [Example 180, (1-(2-((2-(1-(Cyclopropylsulfonyl)-1H-pyrazol-4-yl)pyrimidin-4-yl)amino)-5-((1-methylpyrrolidin-3-yl)ethynyl)pyridin-4-yl)-4-methylpiperidin-4-yl)methanol]
21.2	5.9	1.7	3	81.8	1080	47.6	125	700	> 10000	–	–	–	–	–	CC(C)(O)C1CCN(c2cc(Nc3ccnc(-c4cnn(S(=O)(=O)C5CC5)c4)n3)ncc2C#Cc2cnn(C(F)(F)F)c2)CC1 [Example 329, 2-(1-(2-((2-(1-(Cyclopropylsulfonyl)-1H-pyrazol-4-yl)pyrimidin-4-yl)amino)-5-((1-(trifluoromethyl)-1H-pyrazol-4-yl)ethynyl)pyridin-4-yl)piperidin-4-yl)propan-2-ol]
0.2	0.2	0.1	0.2	1.1	1	1.4	17.2	4.7	7510	–	–	–	–	–	CN(C)CC1(C)CCN(c2cc(Nc3ccnc(-c4cnn(S(=O)(=O)C5CC5)c4)n3)ncc2C#Cc2cnn(C3CC3)c2)CC1 [Example 299, N-(5-((1-Cyclopropyl-1H-pyrazol-4-yl)ethynyl)-4-(4-((dimethylamino)methyl)-4-methylpiperidin-1-yl)pyridin-2-yl)-2-(1-(cyclopropylsulfonyl)-1H-pyrazol-4-yl)pyrimidin-4-amine]
–	0.3	–	0.3	–	3.2	–	17.1	–	4540	–	–	–	–	–	CN1CCC2(CC1)CCN(c1cc(Nc3ccnc(-c4cnn(S(=O)(=O)C5CC5)c4)n3)ncc1C#Cc1cnn(C3CC3)c1)CC2 [Example 319, N-(5-((1-Cyclopropyl-1H-pyrazol-4-yl)ethynyl)-4-(9-methyl-3,9-diazaspiro[5.5]undecan-3-yl)pyridin-2-yl)-2-(1-(cyclopropylsulfonyl)-1H-pyrazol-4-yl)pyrimidin-4-amine]
–	0.3	–	0.4	–	1.4	–	7.6	–	1790	0.1	0.1	0.9	0.9	3	CN(C)CCC1CCCN(c2cc(Nc3ccnc(-c4cnn(S(=O)(=O)C5CC5)c4)n3)ncc2C#Cc2cnn(CCF)c2)C1 (stereo not shown) [Example 386, 2-(1-(Cyclopropylsulfonyl)-1H-pyrazol-4-yl)-N-(4-(3-(2-(dimethylamino)ethyl)piperidin-1-yl)-5-((1-(2-fluoroethyl)-1H-pyrazol-4-yl)ethynyl)pyridin-2-yl)pyrimidin-4-amine]
–	0.7	–	2.6	–	50.8	–	35.6	–	> 10000	–	–	–	–	–	Cn1cc(C#Cc2cnc(Nc3ccnc(-c4cnn(S(=O)(=O)C5CC5)c4)n3)cc2N2CCC(NCCO)CC2)cn1 [Example 131, 2-((1-(2-((2-(1-(Cyclopropylsulfonyl)-1H-pyrazol-4-yl)pyrimidin-4-yl)amino)-5-((1-methyl-1H-pyrazol-4-yl)ethynyl)pyridin-4-yl)piperidin-4-yl)amino)ethan-1-ol]
